# Measurements reported in patent US11161856B2 (H. Lundbeck A/S, priority 2017, dated 2021).
# Key:
# MGLL = target: T1, MGLL (Mus musculus, UniProt O35678); assay: In vitro competitive activity-based protein profiling, mouse brain proteome (MGLL); format: biochemical; parameters: IC50 MGLL Brain (Mouse, μM): scale not given here; conditions: for % Inh MGLL Brain (Mouse, μM): concentration not given (μM)
# T1 construct: Brain; from tissue; host or cells: mouse brain proteome
# T1 sequence (O35678 1-303): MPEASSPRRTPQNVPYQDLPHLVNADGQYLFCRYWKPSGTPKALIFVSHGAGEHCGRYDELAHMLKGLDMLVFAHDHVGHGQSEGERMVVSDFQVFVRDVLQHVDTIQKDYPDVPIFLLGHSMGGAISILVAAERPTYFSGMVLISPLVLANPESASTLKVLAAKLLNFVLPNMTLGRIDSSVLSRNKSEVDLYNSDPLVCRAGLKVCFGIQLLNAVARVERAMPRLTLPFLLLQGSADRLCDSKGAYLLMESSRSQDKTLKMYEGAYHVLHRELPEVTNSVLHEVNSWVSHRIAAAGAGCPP
# ABHD6 = target: T2, ABHD6 (Mus musculus, UniProt Q8R2Y0); assay: In vitro competitive activity-based protein profiling, mouse brain proteome (ABHD6); format: biochemical; conditions: mouse brain proteome; concentration not given (μM)
# T2 construct: Brain; from tissue; host or cells: mouse brain proteome
# T2 sequence (Q8R2Y0 1-336): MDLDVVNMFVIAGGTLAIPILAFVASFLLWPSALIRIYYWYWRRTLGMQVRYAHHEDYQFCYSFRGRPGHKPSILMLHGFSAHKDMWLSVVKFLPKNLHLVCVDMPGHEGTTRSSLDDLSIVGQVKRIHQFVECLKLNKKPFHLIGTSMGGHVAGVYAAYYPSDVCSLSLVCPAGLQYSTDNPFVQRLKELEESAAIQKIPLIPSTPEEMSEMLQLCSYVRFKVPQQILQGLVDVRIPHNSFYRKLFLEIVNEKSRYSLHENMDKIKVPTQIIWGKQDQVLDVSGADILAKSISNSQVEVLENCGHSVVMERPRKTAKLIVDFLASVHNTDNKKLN
# Protocol: [The source words this procedure for another target and reports this target under the same test.] In Vitro Competitive Activity-Based Protein Profiling.
# Proteomes (human prefrontal cortex or cell membrane fractions) (50 μL, 1.0 mg/mL total protein concentration) were preincubated with varying concentrations of inhibitors at 37° C. After 30 min, FP-Rh or HT-01 (1.0 μL, 50 μM in DMSO) was added and the mixture was incubated for another 30 min at room temperature. Reactions were quenched with SDS loading buffer (15 μL-4×) and run on SDS-PAGE.
"% Inh MGLL Brain (Mouse, μM) (MGLL)","% Inh ABHD6 Brain (Mouse, μM) (ABHD6)","IC50 MGLL Brain (Mouse, μM) (MGLL)",SMILES
### (### is ≥75%),### (### is ≥75%),–,"O=C(OC(C(F)(F)F)C(F)(F)F)N1CCC2(CC1)CN(Cc1ccccc1N1CCOCC1)C2 [Example 96, 1,1,1,3,3,3-Hexafluoropropan-2-yl 2-(2-morpholinobenzyl)-2,7-diazaspiro[3,5]nonane-7-carboxylate]"
### (### is ≥75%),# (# is ≤25%),–,"O=C(O)C1CCN(c2cc(Cl)ccc2CN2CCC3(CC2)CCN(C(=O)OC(C(F)(F)F)C(F)(F)F)C3)CC1 [Example 194, l-(5-Chloro-2-((2-(((1.1,1,3,3,3-hexafluoropropan-2-yl)oxy)carbonyl)-2,8-diazaspiro[4.5]decan-8-yl)methyl)phenyI)piperidine-4-carboxylic acid]"
### (### is ≥75%),# (# is ≤25%),–,"CS(=O)(=O)N1CCC2(CCN(c3ccccc3CN3CCN(C(=O)OC(C(F)(F)F)C(F)(F)F)CC3)C2)C1 (stereo not shown) [Example 165, 1,1,1,3,3,3-Hexafluoropropan-2-yl 4-(2-(7-(methylsulfonyl)-2,7-diazaspiro[4.4]nonan-2-yl)benzyl)piperazine-1-carboxylate]"
# (# is ≤25%),### (### is ≥75%),–,"O=C(O)C1CCN(c2ccc(CN3CC4(CCN(C(=O)OC(C(F)(F)F)C(F)(F)F)CC4)C3)cc2)CC1 [Example 74, 1-(4-((7-(((1,1,1,3,3,3-Hexafluoropropan-2-yl)oxy)carbonyl)-2,7-diazaspiro[3.5]nonan-2-yl)methyl)phenyl)piperidine-4-carboxylic acid]"
## (## is between 25 and 75%),### (### is ≥75%),–,"O=C(OC(C(F)(F)F)C(F)(F)F)N1CC2(CCN(Cc3ccc(CN4CCOCC4)cc3)CC2)C1 [Example 18, 1,1,1,3,3,3-Hexafluoropropan-2-yl 7-(4-(morpholinomethyl)benzyl)-2,7-diazaspiro[3.5]nonane-2-carboxylate]"
### (### is ≥75%),### (### is ≥75%),–,"Cc1cc(N2CCOCC2)ccc1CN1CCC2(CC1)CN(C(=O)OC(C(F)(F)F)C(F)(F)F)C2 [Example 71, 1,1,1,3,3,3-Hexafluoropropan-2-yl 7-(2-methyl-4-morpholinobenzyl)-2,7-diazaspiro[3.5]nonane-2-carboxylate]"
### (### is ≥75%),# (# is ≤25%),–,"CC(=O)N1CC2(CCN(c3ccccc3CN3CCC34CCN(C(=O)OC(C(F)(F)F)C(F)(F)F)CC4)C2)C1 [Example 228, 1,1,1,3,3,3-Hexafluoropropan-2-yl 1-(2-(2-acetyl-2,6-diazaspiro[3,4]octan-6-yl)benzyl)-1,7-diazaspiro[3.5]nonane-7-carboxylate]"
### (### is ≥75%),### (### is ≥75%),–,"CS(=O)(=O)N1CCC2(CCN(c3cccc(Cl)c3CN3CC4(CCN(C(=O)OC(C(F)(F)F)C(F)(F)F)CC4)C3)CC2)C1 [Example 61, 1,1,1,3,3,3-Hexafluoropropan-2-yl 2-(2-chloro-6-(2-(methylsulfonyl)-2,8-diazaspiro[4.5]decan-8-yl)benzyl)-2,7-diazaspiro[3.5]nonane-7-carboxylate]"
### (### is ≥75%),### (### is ≥75%),* * *,"CC(=O)N1CCCc2cccc(CN3CC4(CCN(C(=O)OC(C(F)(F)F)C(F)(F)F)CC4)C3)c21 [Example 15, 1,1,1,3,3,3-Hexafluoropropan-2-yl 2-((1-acetyl-1,2,3,4-tetrahydroquinolin-8-yl)methyl)-2,7-diazaspiro[3.5]nonane-7-carboxylate]"
### (### is ≥75%),### (### is ≥75%),–,"CN(Cc1ccc(C(F)(F)F)cc1N1CCOCC1)C1(C)CCN(C(=O)OC(C(F)(F)F)C(F)(F)F)CC1 [Example 63, 1,1,1,3,3,3-Hexafluoropropan-2-yl 4-methyl-4-(methyl(2-morpholino-4-(trifluoromethyl)benzyl)amino) piperidine-1-carboxylate]"
### (### is ≥75%),## (## is between 25 and 75%),–,"CC(=O)N1CC2(CCN(c3cc(Cl)ccc3CN3CCN(C(=O)OC(C(F)(F)F)C(F)(F)F)CC3)CC2)C1 [Example 213, 1,1,1,3,3,3-Hexafluoropropan-2-yl 4-(2-(2-acetyl-2,7-diazaspiro[3.5]nonan-7-yl)-4-chlorobenzyl)piperazine-1-carboxylate]"
## (## is between 25 and 75%),### (### is ≥75%),–,"CCN1CCCc2cccc(CN3CCC4(CC3)CN(C(=O)OC(C(F)(F)F)C(F)(F)F)C4)c21 [Example 31, 1,1,1,3,3,3-Hexafluoropropan-2-yl 7-((1-ethyl-1,2,3,4-tetrahydroquinolin-8-yl)methyl)-2,7-diazaspiro[3.5]nonane-2-carboxylate]"
### (### is ≥75%),# (# is ≤25%),–,"CC(=O)N1CC2(CCN(c3cc(Cl)ccc3CN3CCN(C(=O)OC(C(F)(F)F)C(F)(F)F)CC3)C2)C1 [Example 176, 1,1,1,3,3,3-Hexafluoropropan-2-yl 4-(2-(2-acetyl-2,6-diazaspiro[3.4]octan-6-yl)-4-chlorobenzyl)piperazine-1-carboxylate]"
### (### is ≥75%),## (## is between 25 and 75%),–,"CS(=O)(=O)N1CCCC12CCN(c1cc(Cl)ccc1CN1CCN(C(=O)OC(C(F)(F)F)C(F)(F)F)CC1)CC2 [Example 205, 1,1,1,3,3,3-Hexafluoropropan-2-yl 4-(4-chloro-2-(l-(methylsulfonyl)-1,8-diazaspiro[4.5]decan-8-yl)benzyl)piperazine-l-carboxylate]"
## (## is between 25 and 75%),### (### is ≥75%),–,"O=C(OC(C(F)(F)F)C(F)(F)F)N1CC2(CCN(Cc3ccc(Cl)c(Cl)c3)CC2)C1 [Example 55, 1,1,1,3,3,3-Hexafluoropropan-2-yl 7-(3,4-dichlorobenzyl)-2,7-diazaspiro[3,5]nonane-2-carboxylate]"
## (## is between 25 and 75%),## (## is between 25 and 75%),–,"CC(=O)N1CC2(CCN(c3ccccc3CN3CCCCC34CN(C(=O)OC(C(F)(F)F)C(F)(F)F)C4)C2)C1 [Example 231, 1,1,1,3,3,3-Hexafluoropropan-2-yl 5-(2-(2-acetyl-2,6-diazaspiro[3.4]octan-6-yl)benzyl)-2,5-diazaspiro[3.5]nonane-2-carboxylate]"
## (## is between 25 and 75%),# (# is ≤25%),–,"CC(=O)N1CC2(CCN(c3ccccc3CN3CCCC34CN(C(=O)OC(C(F)(F)F)C(F)(F)F)C4)C2)C1 [Example 230, 1,1,1,3,3,3-Hexafluoropropan-2-yl 5-(2-(2-acetyl-2,6-diazaspiro[3,4]octan-6-yl)benzyl)-2,5-diazaspiro[3.4]octane-2-carboxylate]"
### (### is ≥75%),# (# is ≤25%),–,"CCN1CCC2(CCN(c3cc(Cl)ccc3CN3CCN(C(=O)OC(C(F)(F)F)C(F)(F)F)CC3)CC2)C1 [Example 170, 1,1,1,3,3,3-Hexafluoropropan-2-yl 4-(4-chloro-2-(2-ethyl-2,8-diazaspiro[4.5]decan-8-yl)benzyl)piperazine-1-carboxylate]"
### (### is ≥75%),### (### is ≥75%),–,"O=C(OC(C(F)(F)F)C(F)(F)F)N1CCC2(CC1)CN(Cc1ccc(C(F)(F)F)cc1N1CCCC1)C2 [Example 151, 1,1,1,3,3,3-Hexafluoropropan-2-yl 2-(2-(pyrrolidin-1-yl)-4-(trifluoromethyl)benzyl)-2,7-diazaspiro[3.5]nonane-7-carboxylate]"
### (### is ≥75%),# (# is ≤25%),–,"O=C(O)C1CCN(c2cc(C(F)(F)F)ccc2CN2CCC3(CC2)CCN(C(=O)OC(C(F)(F)F)C(F)(F)F)C3)CC1 [Example 195, l-(2-((2-(((l,1,1,3,3,3-Hexafluoropropan-2-yl)oxy)carbonyl)-2,8-diazaspino[4.5]decan-8-yl)melhyl)-5-(trifluoromethyl)phenyl)piperidine-4-carboxylic acid]"
## (## is between 25 and 75%),### (### is ≥75%),–,"O=C(OC(C(F)(F)F)C(F)(F)F)N1CC2(CCN(Cc3cccc(Oc4ccccc4)c3)CC2)C1 [Example 64, 1,1,1,3,3,3-Hexafluoropropan-2-yl 7-(3-phenoxybenzyl)-2,7-diazaspiro[3,5]nonane-2-carboxylate]"
